In US11702646B2, “Methods for modulating RNA splicing” (PTC THERAPEUTICS, INC., priority 2016, dated 2023):

Experiments:
Assay type in all cases: cell-based
[1] = system: iExons for certain genes (as specified in the figures); test: Dose dependent production of iExons in the presence of compound or control (DMSO); conditions: FIGS. 2A-2D, versus control (DMSO)
Experimental: In some embodiments, a dose-response assay is performed. […] In another embodiment, the dose-response assay comprises: (a) contacting each well of a microtiter plate containing cells with a different concentration of a compound of Formula (I) or a form thereof; (b) determining the amount of an RNA transcript produced by cells in each well; and (c) assessing the change of the amount of the RNA transcript at the different concentrations of the compound or form thereof. […]
In specific embodiments, the amount of alternatively spliced forms of the RNA transcripts of a particular gene are measured to see if there is an alteration in the amount of one, two or more alternatively spliced forms of the RNA transcripts of the gene. In some embodiments, the amount of an isoform(s) encoded by a particular gene is measured to see if there is an alteration in the amount of the isoform(s). In certain embodiments, the levels of spliced forms of RNA are quantified by RT-PCR, RT-qPCR, RNA-Seq, digital color-coded barcode technology, or Northern blot. […] In certain embodiments, splicing is measured in vitro using nuclear extracts. In some embodiments, detection is based on measuring radioactivity or fluorescence. […] In a specific embodiment, modulation of RNA transcripts is assessed as described in the Examples described herein.

[2] = system: RNA transcripts in PNN cell line; test: ΔPSI (iExon production / exon inclusion), FET and Fold Decrease of RNA transcripts in PNN cell line treated at 3 μM; conditions: for FD PNN: Fold Decrease
Experimental: (§1) Results: The statistically significant value for the likelihood of iExon production (ΔPSI) according to the Fisher's Exact Test (FET) for PNN and HDF cell lines treated with Compound 774 at 3 μM and Fold Decrease (FD) for certain genes tested, where NR represents “Not Reported,” is shown in Table 10.
(§2) The ΔPSI for inclusion of an iExon and resulting modulated expression of RNA transcripts identified is represented by stars, where one star (*) represents ≤25% change in expression, where two stars (**) represent change in expression in a range from <26% to ≤50% change, where three stars (***) represent change in expression in a range from <51% to ≤75% change, and, where four stars (****) represent change in expression in a range from <75% to ≤100% change.
(§3) Results: The statistically significant value for the likelihood of exon inclusion (ΔPSI) according to the Fisher's Exact Test (FET) for PNN and HDF cell lines treated with Compound 774 at 3 μM and Fold Decrease (FD) for certain genes tested, where NR represents “Not Reported,” is shown in Table 10a.
as §2, with “exon” for “iExon”

[3] = system: RNA transcripts in HDF cell line; test: ΔPSI (iExon production / exon inclusion), FET and Fold Decrease of RNA transcripts in HDF cell line treated at 3 μM; conditions: for FD HDF: Fold Decrease
Experimental: as §1, §2, §3
as §2, with “exon” for “iExon”

[4] = gene FAM198B, exon e3, PNN cells, 3 μM
[5] = gene PRUNE2, exon e18, PNN cells, 3 μM
[6] = gene FAM198B, exon e3, HDF cells, 3 μM
[7] = gene PRUNE2, exon e18, HDF cells, 3 μM

CCc1nc(C)cn2nc(-c3cc(=O)n4cc(C5CCN(C)CC5)cc(C)c4n3)cc12 [Compound 774]
dose dependent production of iExons for certain genes [1]: dose dependent production of iExons
FD PNN [2, 4]: −1.81
FD PNN [2, 5]: −0.52
ΔPSI (PNN) ([2]; gene APLP2, exon e7, PNN cells, 3 μM): ** (two stars (**) represent change in expression in a range from <26% to ≤50% change)
ΔPSI (PNN) ([2]; gene AXIN1, exon e9, PNN cells, 3 μM): ** (two stars (**) represent change in expression in a range from <26% to ≤50% change)
ΔPSI (PNN) ([2]; gene CECR7, exon e5, PNN cells, 3 μM): * (one star (*) represents ≤25% change in expression)
ΔPSI (PNN) ([2]; gene DAGLB, exon e4, PNN cells, 3 μM): * (one star (*) represents ≤25% change in expression)
ΔPSI (PNN) ([2]; gene DLGAP4, exon e8, PNN cells, 3 μM): * (one star (*) represents ≤25% change in expression)
ΔPSI (PNN) ([2]; gene ERCC1, exon e8, PNN cells, 3 μM): * (one star (*) represents ≤25% change in expression)
ΔPSI (PNN) ([2]; gene ERGIC3, exon e8, PNN cells, 3 μM): * (one star (*) represents ≤25% change in expression)
ΔPSI (PNN) [2, 4]: * (one star (*) represents ≤25% change in expression)
ΔPSI (PNN) ([2]; gene GGCT, exon e2, PNN cells, 3 μM): ** (two stars (**) represent change in expression in a range from <26% to ≤50% change)
ΔPSI (PNN) ([2]; gene HAT1, exon e3, PNN cells, 3 μM): * (one star (*) represents ≤25% change in expression)
ΔPSI (PNN) ([2]; gene HPS1, exon e5, PNN cells, 3 μM): * (one star (*) represents ≤25% change in expression)
ΔPSI (PNN) ([2]; gene INPP5K, exon e2, PNN cells, 3 μM): * (one star (*) represents ≤25% change in expression)
ΔPSI (PNN) ([2]; gene MADD, exon e21, PNN cells, 3 μM): * (one star (*) represents ≤25% change in expression)
ΔPSI (PNN) ([2]; gene PPHLN1, exon e3, PNN cells, 3 μM): *** (three stars (***) represent change in expression in a range from <51% to ≤75% change)
ΔPSI (PNN) [2, 5]: * (one star (*) represents ≤25% change in expression)
ΔPSI (PNN) ([2]; gene RAP1A, exon e2, PNN cells, 3 μM): * (one star (*) represents ≤25% change in expression)
ΔPSI (PNN) ([2]; gene RNFT1, exon e3, PNN cells, 3 μM): * (one star (*) represents ≤25% change in expression)
ΔPSI (PNN) ([2]; gene RPS6KB2, exon e2, PNN cells, 3 μM): * (one star (*) represents ≤25% change in expression)
ΔPSI (PNN) ([2]; gene SH3YL1, exon e9, PNN cells, 3 μM): * (one star (*) represents ≤25% change in expression)
ΔPSI (PNN) ([2]; gene SKA2, exon e3, PNN cells, 3 μM): * (one star (*) represents ≤25% change in expression)
ΔPSI (PNN) ([2]; gene SPATA18, exon e4, PNN cells, 3 μM): ** (two stars (**) represent change in expression in a range from <26% to ≤50% change)
ΔPSI (PNN) ([2]; gene STRN3, exon e8, PNN cells, 3 μM): **** (four stars (****) represent change in expression in a range from <75% to ≤100% change)
ΔPSI (PNN) ([2]; gene TMEM189-UBE2V1, exon e6, PNN cells, 3 μM): * (one star (*) represents ≤25% change in expression)
ΔPSI (PNN) ([2]; gene TRIM65, exon e5, PNN cells, 3 μM): *** (three stars (***) represent change in expression in a range from <51% to ≤75% change)
ΔPSI (PNN) ([2]; gene TUBE1, exon e4, PNN cells, 3 μM): * (one star (*) represents ≤25% change in expression)
ΔPSI (PNN) ([2]; gene UBE2V1, exon e3, PNN cells, 3 μM): * (one star (*) represents ≤25% change in expression)
ΔPSI (PNN) ([2]; gene VPS29, exon e2, PNN cells, 3 μM): ** (two stars (**) represent change in expression in a range from <26% to ≤50% change)
ΔPSI (PNN) ([2]; gene ZFP82, iExon inclusion position i4, PNN cell line, Compound 774 at 3 μM): ** (two stars (**) represent change in expression in a range from <26% to ≤50% change)
ΔPSI (PNN) ([2]; gene ZNF37BP, iExon inclusion position i4, PNN cell line, Compound 774 at 3 μM): **** (four stars (****) represent change in expression in a range from <75% to ≤100% change)
ΔPSI (PNN) ([2]; gene ZNF138, iExon inclusion position i3, PNN cell line, Compound 774 at 3 μM): *** (three stars (***) represent change in expression in a range from <51% to ≤75% change)
ΔPSI (PNN) ([2]; gene ZNF232, iExon inclusion position i4, PNN cell line, Compound 774 at 3 μM): * (one star (*) represents ≤25% change in expression)
ΔPSI (PNN) ([2]; gene ZNF680, exon e3, PNN cells, 3 μM): * (one star (*) represents ≤25% change in expression)
FD HDF [3, 6]: −0.35
FD HDF [3, 7]: −1.74
ΔPSI (HDF) ([3]; gene APLP2, exon e7, HDF cells, 3 μM): ** (two stars (**) represent change in expression in a range from <26% to ≤50% change)
ΔPSI (HDF) ([3]; gene AXIN1, exon e9, HDF cells, 3 μM): * (one star (*) represents ≤25% change in expression)
ΔPSI (HDF) ([3]; gene CECR7, exon e5, HDF cells, 3 μM): * (one star (*) represents ≤25% change in expression)
ΔPSI (HDF) ([3]; gene DAGLB, exon e4, HDF cells, 3 μM): * (one star (*) represents ≤25% change in expression)
ΔPSI (HDF) ([3]; gene DLGAP4, exon e8, HDF cells, 3 μM): * (one star (*) represents ≤25% change in expression)
ΔPSI (HDF) ([3]; gene ERCC1, exon e8, HDF cells, 3 μM): * (one star (*) represents ≤25% change in expression)
ΔPSI (HDF) ([3]; gene ERGIC3, exon e8, HDF cells, 3 μM): * (one star (*) represents ≤25% change in expression)
ΔPSI (HDF) [3, 6]: * (one star (*) represents ≤25% change in expression)
ΔPSI (HDF) ([3]; gene GGCT, exon e2, HDF cells, 3 μM): ** (two stars (**) represent change in expression in a range from <26% to ≤50% change)
ΔPSI (HDF) ([3]; gene HAT1, exon e3, HDF cells, 3 μM): * (one star (*) represents ≤25% change in expression)
ΔPSI (HDF) ([3]; gene HPS1, exon e5, HDF cells, 3 μM): * (one star (*) represents ≤25% change in expression)
ΔPSI (HDF) ([3]; gene INPP5K, exon e2, HDF cells, 3 μM): * (one star (*) represents ≤25% change in expression)
ΔPSI (HDF) ([3]; gene MADD, exon e21, HDF cells, 3 μM): * (one star (*) represents ≤25% change in expression)
ΔPSI (HDF) ([3]; gene PPHLN1, exon e3, HDF cells, 3 μM): ** (two stars (**) represent change in expression in a range from <26% to ≤50% change)
ΔPSI (HDF) [3, 7]: ** (two stars (**) represent change in expression in a range from <26% to ≤50% change)
ΔPSI (HDF) ([3]; gene RAP1A, exon e2, HDF cells, 3 μM): * (one star (*) represents ≤25% change in expression)
ΔPSI (HDF) ([3]; gene RNFT1, exon e3, HDF cells, 3 μM): * (one star (*) represents ≤25% change in expression)
ΔPSI (HDF) ([3]; gene RPS6KB2, exon e2, HDF cells, 3 μM): * (one star (*) represents ≤25% change in expression)
ΔPSI (HDF) ([3]; gene SH3YL1, exon e9, HDF cells, 3 μM): * (one star (*) represents ≤25% change in expression)
ΔPSI (HDF) ([3]; gene SKA2, exon e3, HDF cells, 3 μM): * (one star (*) represents ≤25% change in expression)
ΔPSI (HDF) ([3]; gene SPATA18, exon e4, HDF cells, 3 μM): * (one star (*) represents ≤25% change in expression)
ΔPSI (HDF) ([3]; gene STRN3, exon e8, HDF cells, 3 μM): *** (three stars (***) represent change in expression in a range from <51% to ≤75% change)
ΔPSI (HDF) ([3]; gene TMEM189-UBE2V1, exon e6, HDF cells, 3 μM): * (one star (*) represents ≤25% change in expression)
ΔPSI (HDF) ([3]; gene TRIM65, exon e5, HDF cells, 3 μM): ** (two stars (**) represent change in expression in a range from <26% to ≤50% change)
ΔPSI (HDF) ([3]; gene TUBE1, exon e4, HDF cells, 3 μM): * (one star (*) represents ≤25% change in expression)
ΔPSI (HDF) ([3]; gene UBE2V1, exon e3, HDF cells, 3 μM): * (one star (*) represents ≤25% change in expression)
ΔPSI (HDF) ([3]; gene VPS29, exon e2, HDF cells, 3 μM): ** (two stars (**) represent change in expression in a range from <26% to ≤50% change)
ΔPSI (HDF) ([3]; gene ZFP82, iExon inclusion position i4, HDF cell line, Compound 774 at 3 μM): ** (two stars (**) represent change in expression in a range from <26% to ≤50% change)
ΔPSI (HDF) ([3]; gene ZNF37BP, iExon inclusion position i4, HDF cell line, Compound 774 at 3 μM): *** (three stars (***) represent change in expression in a range from <51% to ≤75% change)
ΔPSI (HDF) ([3]; gene ZNF138, iExon inclusion position i3, HDF cell line, Compound 774 at 3 μM): * (one star (*) represents ≤25% change in expression)
ΔPSI (HDF) ([3]; gene ZNF232, iExon inclusion position i4, HDF cell line, Compound 774 at 3 μM): * (one star (*) represents ≤25% change in expression)
ΔPSI (HDF) ([3]; gene ZNF680, exon e3, HDF cells, 3 μM): * (one star (*) represents ≤25% change in expression)
